# Target: T1, IKBKB (IKKβ) (Homo sapiens, UniProt O14920)
# T1 construct: purchased Invitrogen (Paisley, UK)
# T1 sequence (O14920 1-756): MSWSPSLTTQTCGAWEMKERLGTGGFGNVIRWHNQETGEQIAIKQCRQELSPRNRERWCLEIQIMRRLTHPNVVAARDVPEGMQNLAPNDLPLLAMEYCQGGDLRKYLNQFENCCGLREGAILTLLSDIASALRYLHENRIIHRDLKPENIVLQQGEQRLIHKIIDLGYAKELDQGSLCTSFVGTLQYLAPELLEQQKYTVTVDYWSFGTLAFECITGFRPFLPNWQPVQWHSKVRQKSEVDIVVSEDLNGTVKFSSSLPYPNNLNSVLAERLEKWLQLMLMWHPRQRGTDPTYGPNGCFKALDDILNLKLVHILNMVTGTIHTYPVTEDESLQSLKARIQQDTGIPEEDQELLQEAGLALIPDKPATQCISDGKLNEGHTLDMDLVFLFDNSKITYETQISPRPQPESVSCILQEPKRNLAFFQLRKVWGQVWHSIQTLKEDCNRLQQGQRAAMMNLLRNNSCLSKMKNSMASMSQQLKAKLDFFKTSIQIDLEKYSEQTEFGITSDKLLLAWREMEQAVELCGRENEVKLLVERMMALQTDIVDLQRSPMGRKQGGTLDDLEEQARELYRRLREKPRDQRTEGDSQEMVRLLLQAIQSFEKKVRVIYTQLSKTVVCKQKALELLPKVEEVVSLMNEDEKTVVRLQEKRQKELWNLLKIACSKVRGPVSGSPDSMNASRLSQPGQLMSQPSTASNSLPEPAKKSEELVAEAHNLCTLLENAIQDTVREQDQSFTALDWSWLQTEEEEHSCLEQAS
# Assay: IKKβ Enzyme Assay (Z'-LYTE, Invitrogen)
# Format: biochemical
# Details: ATP at or close to Km; read-out: Inhibitor activity versus IKKβ
# Description: The ability of compounds to inhibit IKKβ kinase activity was measured in an assay performed by Invitrogen (Paisley, UK). The Z′-LYTE™ biochemical assay employs a fluorescence-based, coupled-enzyme format and is based on the differential sensitivity of phosphorylated and non-phosphorylated peptides to proteolytic cleavage. The peptide substrate is labelled with two fluorophores—one at each end—that make up a FRET pair. In the primary reaction, the kinase transfers the gamma-phosphate of ATP to a single serine or threonine residue in a synthetic FRET-peptide. In the secondary reaction, a site-specific protease recognizes and cleaves non-phosphorylated FRET-peptides. Phosphorylation of FRET-peptides suppresses cleavage by the Development Reagent. Cleavage disrupts FRET between the donor (i.e., coumarin) and acceptor (i.e. fluorescein) fluorophores on the FRET-peptide, whereas uncleaved, phosphorylated FRET-peptides maintain FRET. A […] method, which calculates the ratio (the Emission Ratio) of donor emission to acceptor emission after excitation of the donor fluorophore at 400 nm, is used to quantitate reaction progress.
# The final 10 μL Kinase Reaction consists of 0.9-8.0 ng IKBKB (IKKβ), 2 μM Ser/Thr 05 Peptide and ATP in 50 mM HEPES pH 7.5, 0.01% BRIJ-35, 10 mM MgCl2, 1 mM EGTA. The assay is performed at an ATP concentration at, or close to the Km. After the 60 minute Kinase Reaction incubation at room temperature, 5 μL of a 1:128 dilution of Development Reagent is added. The assay plate is incubated for a further 60 minutes at room temperature and read on a fluorescence plate reader.
# Duplicate data points are generated from a ⅓ log dilution series of a stock solution of test compound in DMSO. Nine dilutions steps are made from a top concentration of 10 μM, and a ‘no compound’ blank is included. Data is collected and analysed using XLfit software from IDBS. The dose response curve is curve fitted to model number 205 (sigmoidal dose-response model). From the curve generated, the concentration giving 50% inhibition is determined and reported.
row,IC50,Structure (SMILES)
1,< 1000 nM,"NC(=O)Nc1sc(-c2ccc(CN[C@H](C(=O)O)c3ccc4ccccc4c3)cc2)cc1C(N)=O [Example 54, (2S)-({-4-[4-Carbamoyl-5-(carbamoylamino)-2-thienyl]benzyl}amino)(2-naphthyl)acetic acid]"
2,< 1000 nM,"CC(C)C[C@H](NC/C=C/c1ccc(-c2cc(C(N)=O)c(NC(N)=O)s2)cc1C(F)(F)F)C(=O)O [Example 76, N-[(2E)-3-{4-(4-carbamoyl-5-(carbamoylamino)thiophen-2-yl]-2-(trifluoromethyl)phenyl}prop-2-en-1-yl]-L-leucine]"
3,< 1000 nM,"CC(C)C[C@H](NCCCOc1ccc(-c2cc(C(N)=O)c(NC(N)=O)s2)cc1)C(=O)O [Example 65, N-(3-{4-[4-Carbamoyl-5-(carbamoylamino)-2-thienyl]phenoxy}propyl)-L-leucine]"
4,< 1000 nM,"Cc1cc(-c2cc(C(N)=O)c(NC(N)=O)s2)ccc1CN[C@@H](CC(C)C)C(=O)O [Example 56, N-{4-[4-carbamoyl-5-(carbamoylamino)-2-thienyl]-2-methylbenzyl}-L-leucine]"
5,< 1000 nM,CC(C)C[C@H](NCCc1ccc(-c2cc(C(N)=O)c(NC(N)=O)s2)cc1)C(=O)O [Example 63]
6,< 1000 nM,"CC(C)C[C@H](NC/C=C/c1ccc(-c2cc(C(N)=O)c(NC(N)=O)s2)cc1F)C(=O)O [Example 71, N-[(2E)-3-{4-[4-carbamoyl-5-(carbamoylamino)thiophen-2-yl]-2-fluorophenyl}prop-2-en-1-yl]-L-leucine]"
7,< 1000 nM,"CC(C)C[C@H](NCc1cccc(-c2cc(C(N)=O)c(NC(N)=O)s2)c1)C(=O)O [Example 57, N-{3-[4-Carbamoyl-5-(carbamoylamino)-2-thienyl]benzyl}-L-leucine]"
8,< 1000 nM,"CC(C)(C)OC[C@H](NC/C=C/c1ccc(-c2cc(C(N)=O)c(NC(N)=O)s2)cc1)C(=O)O [Example 82, O-tert-butyl-N-[(2E)-3-{4-[4-carbamoyl-5-(carbamoylamino)thiophen-2-yl]phenyl}prop-2-en-1-yl]-L-serine]"
9,< 1000 nM,"C[C@@H](O)[C@H](NCc1cccc(-c2cc(C(N)=O)c(NC(N)=O)s2)c1)C(=O)O [Example 61, N-{3-[4-carbamoyl-5-(carbamoylamino)thiophen-2-yl]benzyl}-L-threonine]"
10,< 1000 nM,"NC(=O)Nc1sc(-c2ccc(/C=C/CN[C@H](C(=O)O)c3ccccc3)cc2)cc1C(N)=O [Example 81, (2S)-{[(2E)-3-{4-[4-carbamoyl-5-(carbamoylamino)-2-thienyl]phenyl}prop-2-en-1-yl]amino}(phenyl)acetic acid]"
11,< 1000 nM,"CC(C)C[C@H](NC/C=C/c1c(F)cc(-c2cc(C(N)=O)c(NC(N)=O)s2)cc1F)C(=O)O [Example 78, N-[(2E)-3-{4-[4-carbamoyl-5-(carbamoylamino)thiophen-2-yl]-2,6-difluorophenyl}prop-2-en-1-yl]-L-leucine]"
12,< 1000 nM,"CC(C)C[C@H](NC/C=C/c1ccc(-c2cc(C(N)=O)c(NC(N)=O)s2)c(Cl)c1)C(=O)O [Example 75, N-[(2E)-3-{4-[4-carbamoyl-5-(carbamoylamino)thiophen-2-yl]-3-chlorophenyl}prop-2-en-1-yl]-L-leucine]"
13,< 1000 nM,"CC(C)(C)OC[C@H](NCc1cccc(-c2cc(C(N)=O)c(NC(N)=O)s2)c1)C(=O)O [Example 60, O-tert-butyl-N-{3-[4-carbamoyl-5-(carbamoylamino)thiophen-2-yl]benzyl}-L-serine]"
14,< 1000 nM,"CC(C)C[C@H](NCCCCCOc1ccc(-c2cc(C(N)=O)c(NC(N)=O)s2)c(Cl)c1)C(=O)O [Example 68, N-(5-{4-[4-Carbamoyl-5-(carbamoylamino)-2-thienyl]-3-chlorophenoxy}pentyl)-L-leucine]"
15,< 1000 nM,"CC(C)C[C@H](NC/C=C/c1ccc(-c2cc(C(N)=O)c(NC(N)=O)s2)cc1)C(=O)O [Example 69, N-[(2E)-3-{4-[4-Carbamoyl-5-(carbamoylamino)-2-thienyl]phenyl}prop-2-en-1-yl]-L-leucine]"

row,Structure (SMILES),IC50
1,Cc1cc(-c2cc(C(N)=O)c(NC(N)=O)s2)cc(C)c1/C=C/CN[C@@H](CC(C)C)C(=O)O [Example 80],< 1000 nM
